Patent US20210371385A1, “POLYMORPHIC AND AMORPHOUS FORMS OF ISOQUINOLINONE AND METHODS OF USE THEREOF” (Sojournix, Inc., priority 2018, published 2021)
Values after ≈ are worked out from the molar mass of the structure shown. Values joined by “and” are separate entries in the source; they are usually repeats but may differ in a detail not shown here. Identical values can stand only once. “Also recorded” adds a separate entry of the source.

Legend:
Assay type in all cases: physicochemical
[1] = Solid form stability at ambient conditions by XRPD; conditions: for Solid form stability: ambient conditions / room temperature, XRPD
[2] = Thermodynamic equilibrium aqueous solubility; conditions: pH 7.4
[3] = Solubility in vehicles/excipients for in vivo and toxicological studies; conditions: for Maximum single dose in solubilized form: dogs, 100% PEG 400, maximum volume 1-2 ml/kg; for Maximum dose in solubilized form, 100% PEG 400 / Maximum dose in solubilized form, Gelucire:PEG 400 90:10: rats; for Maximum dose in solubilized form, 100% PEG 400: 5 ml/kg is maximum volume dose; for Maximum dose in solubilized form, Gelucire:PEG 400 90:10: 10 ml/kg is maximum volume dose
Experimental: In addition, the solubility of SJB-01 was investigated in a large number of vehicles for use in in vivo pharmacological studies, as well as toxicological evaluation of the compound.
Formulations for toxicological evaluation of SJB-01 were considered. The highest solubility was obtained with 100% PEG 400 and a mixture of Gelucire and PEG 400. Since a formulation with Gelucire:PEG required increased handling time, including dosing at ˜45° C., 100% PEG 400 was chosen for formulation purpose in the early toxicological evaluation including mini-MTD (maximum tolerated dose) and a 14 days toxicological dosing study. The maximum dose reached was 140 mg/kg-the highest possible dose achievable with PEG 400 as vehicle. […] From a formulation perspective, this can only be done by using Gelucire:PEG as a vehicle, under the assumption that a solution will lead to a higher bioavailability than dosing the compound in a PEG 400 suspension. In the table below, the maximum dose of SJB-01 given on a solubilized form is provided, taking into account the tolerated dose of the vehicle as well.

[4] = Dynamic vapor sorption (DVS)
Experimental: Pattern β was analyzed using DVS with two sorption/desorption cycles. The solid reversibly picked-up about 0.12% between 2-95% relative humidity at 25° C.
Dynamic Vapor Sorption (DVS) was done using a DVS Intrinsic 1. The sample is loaded into a sample pan and suspended from a microbalance. A typical sample mass for DVS measurement is 25 mg. Nitrogen gas bubbled through distilled water provides the desired relative humidity. A typical measurement comprises the steps:
2. 50% to 2%. (50%, 40%, 30%, 20%, 10% and 2%)-Hold minimum of 5 mins and maximum of 60 minutes at each humidity. The pass criteria is less than 0.002% change.
3. 2% to 95% (2%, 10%, 20%, 30%, 40%, 50%, 60%, 70%, 80%, 90%, 95%)-Hold minimum of 5 mins and maximum of 60 minutes at each humidity. The pass criteria is less than 0.002% change.
4. 95% to 2% (95%, 80%, 70%, 60%, 50%, 40%, 30%, 20%, 10%, 2%)-Hold minimum of 5 mins and maximum of 60 minutes at each humidity. The pass criteria is less than 0.002% change.
5. 2% to 50% (2%, 10%, 20%, 30%, 40%, 50%)-Hold minimum of 5 mins and maximum of 60 minutes at each humidity. The pass criteria is less than 0.002% change.

[5] = Solubility in water and simulated fluids (FaSSIF, FaSSGF) at 37 °C; conditions: for Solubility / solubility at 24 h: 37 °C; for solubility at 24 h: thermodynamic from solid; for Solubility in FaSSIF: fasted state simulated intestinal fluid
Description: The solids were slurried in the respective solution for 24 hrs then the liquid isolated by syringe filtration for analysis by HPLC. The data are summarized in Table 19; the solubility of all forms in all solutions is on the microgram scale. Essentially, none of these are substantially advantageous over the other ones in terms of equilibrium solubility.

[6] = Stability in high humidity (40 °C/75% RH, XRPD); conditions: one week
Experimental: Patterns α (L100142-37-5), β (L100142-1-1) and free flowing amorphous solid (L100142-19-1) SJB-01 were exposed to a 40° C./75% RH environment for one week.

[7] = Solubility in buffered solutions vs pH at 37 °C (HPLC); conditions: aqueous buffers, aqueous buffer, thermodynamic from solid; about 37 °C; read-out: Solubility in buffered solution (range)
Experimental: Aqueous buffers between pH 1.3 and 7.4 (13 total) were prepared and 3 mL added to about 15 mg of SJB-01 (L100149-44-1, jet-milled). These slurries were stirred on a hot-plate at 37° C. for 24 hours. Sonication and vortexting was employed within the first 2 hours of stirring to ensure thorough mixing and wetting of the solids as there was a clear tendency for them to clump and float at the liquid surface. After sonication and vortexing there was substantial solids suspended in solution (slurry) along with the solids that floated on top. At 24 hours, the samples were collected by syringe filtration of about 2 mL of solution. The first 1 mL of solution that passed through the filter was discarded and the second 0.5-1 mL of solution was used for HPLC analysis. The samples were injected into HPLC without dilution.
SJB-01 (L100149-44-1) was weighed directly into volumetric flasks and filled to volume with ACN:water (6:4 vol.) to build a calibration curve. […] Details for the HPLC method used are given in Table 34; these follow the parameters used for previous dissolution study.

[8] = Intrinsic Dissolution Rate (IDR); conditions: 0.001 M HCl pH 3.0; pressed tablet
Experimental: The Intrinsic Dissolution Rate (IDR) was calculated for a beta polymorph form of SJB-01. A tablet of the compound was pressed and put into a dissolution chamber. It was subsequently measured how fast the substance was dissolved from the surface into the solvent. Initially, the experiment was performed in a standard buffer (0.001 M HCl pH 3.0), reflecting the stomach conditions at fastened state.
Due to the high impact of bile components on solubilisation of SJB-01, IDR was performed in FeSSIF media, reflecting the fed-state in humans.

[9] = Solubility in bio-relevant media
Experimental: The solubility of the beta polymorph form of SJB-01 was further examined in bio-relevant media. The fasted-state small intestinal fluid (FaSSIF) contained 3 mM sodium taurocholate (bile acid), 0.75 mM lecithin (phosphorlipid) and phosphate buffer to maintain a pH of 6.0. The fed-state small intestinal fluid (FeSSIF) contained 5-fold higher concentration of sodium taurocholate and lecithin and thus higher capacity for micellar solubilization of the compound. The pH in the FeSSIF buffer was maintained to 5.0 with acetate buffer.

[10] = about 37 °C, listed as amorphous form
[11] = about 37 °C, listed as beta form

**Q.** For CCNn1c(C)c(C(=O)N[C@H](c2ccccc2)C2CC2)c2cccc(F)c2c1=O [Pattern α, 2-ethylamino-8-fluoro-3-methyl-1-oxo-1,2-dihydro-isoquinoline-4-carboxylic acid ((S)-cyclopropyl-phenyl-methyl)-amide], which Solid form stability [1] is on record?
**A.** not stable; also recorded: less stable than Pattern β

**Q.** What about the solubility thermodynamic ([2]; aqueous medium, aqueous buffer, thermodynamic from solid) of the same compound?
**A.** ~14 µg/mL (≈ 35.6 µM)

**Q.** What about the “Solubility in 100% PEG 400” value [3] of the same compound?
**A.** 32 mg base/ml

**Q.** And the “Solubility in Gelucire:PEG 400 90:10” value [3]?
**A.** 40 mg base/ml

**Q.** And the “Maximum single dose in solubilized form” value ([3]; listed as α-form)?
**A.** 28 to 56 mg/kg

**Q.** And the “Maximum dose in solubilized form, 100% PEG 400” value ([3]; listed as α-form)?
**A.** 140 mg/kg

**Q.** What about the “Maximum dose in solubilized form, Gelucire:PEG 400 90:10” value ([3]; listed as α-form) of the same compound?
**A.** 360 mg/kg

**Q.** And the “Moisture pick-up by DVS” value ([4]; 2-95% relative humidity, 25 °C)?
**A.** about 0.6%

**Q.** And the Solubility ([5]; FaSSGF, 24 hrs)?
**A.** 7 µg/mL (≈ 17.8 µM)

**Q.** And the solubility at 24 h ([5]; FaSSGF, fassgf or other biorelevant, fasted state simulated gastric fluid, about 37 °C, read-out: Solubility in FaSSGF)?
**A.** 7 µg/mL (≈ 17.8 µM)

**Q.** What about the Solubility ([5]; FaSSIF, 24 hrs) of the same compound?
**A.** 8 µg/mL (≈ 20.3 µM)

**Q.** What about the “Solubility in FaSSIF” value ([5]; about 37 °C, listed as alpha form) of the same compound?
**A.** 8 µg/mL (≈ 20.3 µM)

**Q.** And the solubility at 24 h ([5]; water, water, water, about 37 °C, read-out: Solubility in water)?
**A.** 6 µg/mL (≈ 15.2 µM)

**Q.** What about the solubility at 24 h ([5]; water, FaSSIF and FaSSGF, about 37 °C, read-out: Solubility in water and simulated fluids (range)) of the same compound?
**A.** 6 to 8 µg/mL (≈ 15.2 to 20.3 µM)

**Q.** What about the “Solid form by XRPD after humidity exposure” value (“Solid form by XRPD” below) [6] of the same compound?
**A.** converted considerably to Pattern β

**Q.** For CCNn1c(C)c(C(=O)N[C@H](c2ccccc2)C2CC2)c2cccc(F)c2c1=O [Amorphous, 2-ethylamino-8-fluoro-3-methyl-1-oxo-1,2-dihydro-isoquinoline-4-carboxylic acid ((S)-cyclopropyl-phenyl-methyl)-amide], which Solid form stability ([1]; listed as powdered amorphous freebase) is on record?
**A.** still showed an amorphous pattern

**Q.** And the “Time amorphous form remained stable” value ([1]; ambient environment)?
**A.** at least 17 days

**Q.** And the Solubility ([5]; FaSSGF, 24 hrs)?
**A.** 6 µg/mL (≈ 15.2 µM)

**Q.** And the Solubility ([5]; FaSSIF, 24 hrs)?
**A.** 18 µg/mL (≈ 45.7 µM)

**Q.** And the Solubility ([5]; Water, 24 hrs)?
**A.** 5 µg/mL (≈ 12.7 µM)

**Q.** What about the “Solubility in water and simulated fluids (range)” value [5, 10] of the same compound?
**A.** 5 to 18 µg/mL

**Q.** And the “Solubility in FaSSGF” value ([5]; fasted state simulated gastric fluid, about 37 °C, listed as amorphous form)?
**A.** 6 µg/mL (≈ 15.2 µM)

**Q.** And the “Solubility in FaSSIF” value [5, 10]?
**A.** 18 µg/mL (≈ 45.7 µM)

**Q.** What about the Solubility in water ([5]; water, about 37 °C, listed as amorphous form) of the same compound?
**A.** 5 µg/mL (≈ 12.7 µM)

**Q.** What about the “Solid form by XRPD” value ([6]; listed as amorphous solid) of the same compound?
**A.** converted considerably to Pattern β

**Q.** For CCNn1c(C)c(C(=O)N[C@H](c2ccccc2)C2CC2)c2cccc(F)c2c1=O [Pattern β, 2-ethylamino-8-fluoro-3-methyl-1-oxo-1,2-dihydro-isoquinoline-4-carboxylic acid ((S)-cyclopropyl-phenyl-methyl)-amide], which Solid form stability [1] is on record?
**A.** most stable polymorph

**Q.** What about the Thermodynamic equilibrium solubility [2] of the same compound?
**A.** ~8 μg base/ml

**Q.** And the solubility at 24 h [7]?
**A.** 6.4 to 9.8 µg/mL (≈ 16.3 to 24.9 µM)

**Q.** What about the “Solubility in 100% PEG 400” value [3] of the same compound?
**A.** 22 mg base/ml

**Q.** And the “Solubility in Gelucire:PEG 400 90:10” value [3]?
**A.** 26 mg base/ml

**Q.** What about the “Maximum single dose in solubilized form” value ([3]; listed as β-form) of the same compound?
**A.** 20 to 40 mg/kg

**Q.** What about the “Maximum dose in solubilized form, 100% PEG 400” value ([3]; listed as β-form) of the same compound?
**A.** 100 mg/kg

**Q.** What about the “Maximum dose in solubilized form, Gelucire:PEG 400 90:10” value ([3]; listed as β-form) of the same compound?
**A.** 230 mg/kg

**Q.** And the “Intrinsic Dissolution Rate (IDR)” value [8]?
**A.** 0.002 mg/cm^2·min

**Q.** And the Hygroscopicity ([4]; DVS, two sorption/desorption cycles)?
**A.** not hygroscopic

**Q.** What about the solubility at 24 h ([5]; FaSSGF (fasted state simulated gastric fluid), fassgf or other biorelevant, FaSSGF, 24 hrs, read-out: Solubility) of the same compound?
**A.** 6 µg/mL (≈ 15.2 µM)

**Q.** And the Solubility ([5]; FaSSIF, 24 hrs)?
**A.** 8 µg/mL (≈ 20.3 µM)

**Q.** What about the “Solubility in water and simulated fluids (range)” value [5, 11] of the same compound?
**A.** 5 to 8 µg/mL and 6 to 10 µg/mL

**Q.** What about the “Solubility in FaSSIF” value [5, 11] of the same compound?
**A.** 8 µg/mL (≈ 20.3 µM)

**Q.** And the solubility at 24 h ([5]; water, water, Water, 24 hrs, read-out: Solubility)?
**A.** 5 µg/mL (≈ 12.7 µM)

**Q.** What about the “Solubility in bio-relevant media” value ([9]; 0.001M HCl pH 3.0) of the same compound?
**A.** 8 μg base/ml

**Q.** And the “Solubility in bio-relevant media” value ([9]; FaSSIF, pH 6.0)?
**A.** 11 μg base/ml

**Q.** And the “Solubility in bio-relevant media” value ([9]; FeSSIF, pH 5.0)?
**A.** 19 μg base/ml

**Q.** And the “Solid form by XRPD” value [6]?
**A.** remained unchanged
